Target: T1, human M1 (Homo sapiens, UniProt P11229)
T1 construct: expressed in transfected cells; host or cells: CHO cells
T1 sequence (P11229 1-460): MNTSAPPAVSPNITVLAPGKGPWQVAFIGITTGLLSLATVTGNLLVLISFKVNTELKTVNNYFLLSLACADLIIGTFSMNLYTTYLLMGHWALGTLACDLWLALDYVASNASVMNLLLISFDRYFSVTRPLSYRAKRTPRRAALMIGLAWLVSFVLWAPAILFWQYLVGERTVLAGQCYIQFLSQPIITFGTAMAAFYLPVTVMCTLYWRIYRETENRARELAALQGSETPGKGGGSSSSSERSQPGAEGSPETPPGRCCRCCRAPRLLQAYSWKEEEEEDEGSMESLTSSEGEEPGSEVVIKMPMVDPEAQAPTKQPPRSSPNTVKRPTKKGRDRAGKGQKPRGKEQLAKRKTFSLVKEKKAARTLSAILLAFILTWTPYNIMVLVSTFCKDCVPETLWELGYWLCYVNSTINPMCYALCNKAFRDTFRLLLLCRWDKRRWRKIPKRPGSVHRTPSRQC
Assay: M1 PAM assay (FLIPR intracellular calcium), human M1
Type: cell-based
Details: not given
Description: The assay study the effect of several concentrations of test compounds on basal or acetylcholine-stimulated Ca^2+ levels using FLIPR.
CHO human M1 are plated the day before the experiments at 2×10^5 cells/ml in PDL BioCoat 96 well black/clear plate (Becton 35 4640). The cells are grown at 37° C. and 5% CO2 in the following medium: F12 Nut Mix (Gibco 21765), 10% FCS heat inactivated (GIBCO 16000-044), 1% Pen Strep (Gibco,15140) and 200 μg/ml Geneticin (Gibco 11811). On the day of the experiment, the medium was removed and replaced by […] of dye loading buffer containing Hanks Balanced Salt solution (HBSS, 14065-049, Gibco) with 20 mM HEPES (Gibco 15630-056), 2 mM Probenicid (Sigma P8761), […] ester (Molecular Probes F-14202), 10% Pluronic acid Molecular Probes P-3000) pH=7.4 and incubated at 37° C. After 60 minutes extracellular dye was removed and the cells were washed five times with FLIPR buffer containing HBSS (Gibco 14065-049) with 20 mM HEPES (Gibco, 15630-056), 2 mM Probenicid (Sigma P8761) pre-warmed at 37° C. using and Ebml cell washer leaving […] of FLIPR buffer in each well. The cell plate and the diluted compounds (1% DMSO final concentration) are placed on the platform of the FLIPR and the door closed. A signal test to check background fluorescence and basal fluorescence signal is performed. Laser intensity is adjusted if necessary. Two minutes preincubation with the diluted test compounds is provide to determine any agonist activity on the M1 receptor by comparison to 30 nM Acetylcholine control. In order to determine any modulator activity the diluted compounds were added to cells and after two minutes preincubation, the EC20 of acetylcholine is added followed by another two minutes preincubation before the measurement of intracellular Ca^2+ with a FLIPR (Molecular Devices).

| SMILES | EC50 [µM] |
| --- | --- |
| COc1ccc(Cn2cc(C(=O)N[C@H]3CCCC[C@@H]3O)c3c(F)cccc32)c(F)c1 [Example 28, 4-fluoro-1-(2-fluoro-4-methoxybenzyl)-N-((1S,2S)-2-hydroxycyclohexyl)-1H-indole-3-carboxamide] | 0.272 |
| O=C(N[C@H]1CCCC[C@@H]1O)c1cn(Cc2ccc(OC(F)F)cc2)c2cccc(F)c12 [Example 29, 1-(4-(difluoromethoxy)benzyl)-4-fluoro-N-((1S,2S)-2-hydroxycyclohexyl)-1H-indole-3-carboxamide] | 0.226 |
| O=C(N[C@H]1CCCC[C@@H]1O)c1cn(Cc2ccc(OC(F)(F)F)cc2)c2cccc(F)c12 [Example 34, 4-fluoro-N-((1S,2S)-2-hydroxycyclohexyl)-1-(4-(trifluoromethoxy)benzyl)-1H-indole-3-carboxamide] | 0.342 |
| O=C(N[C@H]1CCCC[C@@H]1O)c1cn(Cc2cccc(Cl)c2)c2cccc(F)c12 [Example 39, 1-(3-chlorobenzyl)-4-fluoro-N-((1S,2S)-2-hydroxycyclohexyl)-1H-indole-3-carboxamide] | 0.205 |
| N#Cc1cccc(Cn2cc(C(=O)N[C@H]3CCCC[C@@H]3O)c3c(F)cccc32)c1 [Example 40, 1-(3-cyanobenzyl)-4-fluoro-N-((1S,2S)-2-hydroxycyclohexyl)-1H-indole-3-carboxamide] | 0.476 |

Same assay, conditions: CHO human M1 cells, FLIPR Ca2+, with EC20 of acetylcholine; first value of the cell; read-out: hM1 EC50

| SMILES | EC50 [µM] |
| --- | --- |
| Cn1cc(-c2ccc(Cn3cc(C(=O)NC4CCCCC4(F)F)c4c(F)cccc43)c(F)c2)cn1 (centres unmarked) [Example 25, N-(2,2-difluorocyclohexyl)-4-fluoro-1-(2-fluoro-4-(1-methyl-1H-pyrazol-4-yl)benzyl)-1H-indole-3-carboxamide] | 0.359 |
| Cn1cc(-c2cccc(Cn3cc(C(=O)N[C@H]4CCCC[C@@H]4O)c4c(F)cccc43)c2)cn1 [Example 35, 4-fluoro-N-((1S,2S)-2-hydroxycyclohexyl)-1-(3-(1-methyl-1H-pyrazol-4-yl)benzyl)-1H-indole-3-carboxamide] | 0.226 |
| Cn1cc(-c2ccc(Cn3cc(C(=O)N[C@H]4CCCC[C@@H]4O)c4c(F)c(F)ccc43)cc2)cn1 [Example 57, 4,5-difluoro-N-((1S,2S)-2-hydroxycyclohexyl)-1-(4-(1-methyl-1H-pyrazol-4-yl)benzyl)-1H-indole-3-carboxamide] | 0.139 |
| Cn1cc(-c2ccc(Cn3nc(C(=O)NC4CCOCC4)c4c(F)cccc43)cc2)cn1 [Example 69, 4-fluoro-1-(4-(1-methyl-1H-pyrazol-4-yl)benzyl)-N-(tetrahydro-2H-pyran-4-yl)-1H-indazole-3-carboxamide] | 0.344 |
| NC(=O)c1cccc(Cn2cc(C(=O)N[C@H]3CCCC[C@@H]3O)c3c(F)cccc32)c1 [Example 81, 1-(3-carbamoylbenzyl)-4-fluoro-N-((1S,2S)-2-hydroxycyclohexyl)-1H-indole-3-carboxamide] | 0.351 |
| CS(=O)(=O)c1ccc(Cn2cc(C(=O)N[C@H]3CCCC[C@@H]3O)c3c(F)cccc32)cc1 [Example 82, 4-fluoro-N-((1S,2S)-2-hydroxycyclohexyl)-1-(4-(methylsulfonyl)benzyl)-1H-indole-3-carboxamide] | 0.435 |
| CCOC(=O)Nc1ccc(Cn2cc(C(=O)N[C@H]3CCCC[C@@H]3O)c3c(F)cccc32)cc1 [Example 85, ethyl 4-((4-fluoro-3-((1S,2S)-2-hydroxycyclohexylcarbamoyl)-1H-indol-1-yl)methyl)phenylcarbamate] | 0.0429 |
| CNC(=O)c1cccc(Cn2cc(C(=O)N[C@H]3CCCC[C@@H]3O)c3c(F)cccc32)c1 [Example 89, 4-fluoro-N-((1S,2S)-2-hydroxycyclohexyl)-1-(3-(methylcarbamoyl)benzyl)-1H-indole-3-carboxamide] | 0.319 |
| CN(C)C(=O)c1cccc(Cn2cc(C(=O)N[C@H]3CCCC[C@@H]3O)c3c(F)cccc32)c1 [Example 90, 1-(3-(dimethylcarbamoyl)benzyl)-4-fluoro-N-((1S,2S)-2-hydroxycyclohexyl)-1H-indole-3-carboxamide] | 0.341 |

Reference: patent publication US9708259B2 (Hoffmann-La Roche Inc., priority 2013, dated 2017)
